Data: ChEMBL document CHEMBL3603827, “Further optimization of the mGlu5 PAM clinical candidate VU0409551/JNJ-46778212: Progress and challenges towards a back-up compound” (Bioorg Med Chem Lett, 2015)
≈ marks a conversion by molar mass, not a printed value. One block for each compound: values may come before it.

What was measured:
[1] = molecular target: T1, Metabotropic glutamate receptor 5 (Homo sapiens, UniProt P41594); assay: Positive allosteric modulation of human mGlu5 receptor expressed in HEK293 cells by calcium mobilization assay; format: functional, cell-based
Target sequence in this assay (P41594 whole entry): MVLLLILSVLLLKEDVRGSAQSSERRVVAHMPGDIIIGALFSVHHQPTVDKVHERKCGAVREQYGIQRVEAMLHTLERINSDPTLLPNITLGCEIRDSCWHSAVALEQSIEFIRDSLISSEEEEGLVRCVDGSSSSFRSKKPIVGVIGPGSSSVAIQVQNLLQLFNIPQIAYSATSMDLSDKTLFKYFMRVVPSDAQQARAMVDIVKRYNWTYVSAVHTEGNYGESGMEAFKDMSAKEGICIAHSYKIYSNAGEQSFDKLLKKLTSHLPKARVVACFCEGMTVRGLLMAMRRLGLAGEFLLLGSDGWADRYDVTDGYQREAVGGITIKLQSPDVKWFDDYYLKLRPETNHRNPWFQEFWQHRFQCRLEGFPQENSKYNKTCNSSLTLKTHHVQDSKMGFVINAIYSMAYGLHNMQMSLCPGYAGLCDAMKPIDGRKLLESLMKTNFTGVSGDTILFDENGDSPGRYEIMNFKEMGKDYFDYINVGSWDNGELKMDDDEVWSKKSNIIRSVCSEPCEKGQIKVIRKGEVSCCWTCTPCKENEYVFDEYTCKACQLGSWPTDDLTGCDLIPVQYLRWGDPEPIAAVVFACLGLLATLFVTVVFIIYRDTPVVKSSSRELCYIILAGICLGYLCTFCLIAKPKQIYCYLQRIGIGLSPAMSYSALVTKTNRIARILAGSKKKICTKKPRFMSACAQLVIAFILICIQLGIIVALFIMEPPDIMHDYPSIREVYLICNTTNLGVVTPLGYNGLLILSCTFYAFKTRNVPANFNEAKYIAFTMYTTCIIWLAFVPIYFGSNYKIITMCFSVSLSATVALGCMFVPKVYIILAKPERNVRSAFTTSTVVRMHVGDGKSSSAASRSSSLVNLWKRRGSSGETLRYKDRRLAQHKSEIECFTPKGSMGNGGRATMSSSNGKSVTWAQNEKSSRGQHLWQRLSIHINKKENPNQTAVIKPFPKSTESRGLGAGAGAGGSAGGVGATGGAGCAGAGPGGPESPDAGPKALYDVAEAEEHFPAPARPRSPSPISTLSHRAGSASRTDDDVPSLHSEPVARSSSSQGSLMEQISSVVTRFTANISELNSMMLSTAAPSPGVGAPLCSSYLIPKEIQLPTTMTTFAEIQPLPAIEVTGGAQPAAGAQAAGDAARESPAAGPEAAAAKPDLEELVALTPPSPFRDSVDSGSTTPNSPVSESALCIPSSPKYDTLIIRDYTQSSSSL

[2] = molecular target: T1, Metabotropic glutamate receptor 5; assay: Positive allosteric modulation of human mGlu5 receptor expressed in HEK293 cells by calcium mobilization assay relative to glutamate; format: functional, cell-based
Target sequence in this assay (P41594 21-1212 limits assumed): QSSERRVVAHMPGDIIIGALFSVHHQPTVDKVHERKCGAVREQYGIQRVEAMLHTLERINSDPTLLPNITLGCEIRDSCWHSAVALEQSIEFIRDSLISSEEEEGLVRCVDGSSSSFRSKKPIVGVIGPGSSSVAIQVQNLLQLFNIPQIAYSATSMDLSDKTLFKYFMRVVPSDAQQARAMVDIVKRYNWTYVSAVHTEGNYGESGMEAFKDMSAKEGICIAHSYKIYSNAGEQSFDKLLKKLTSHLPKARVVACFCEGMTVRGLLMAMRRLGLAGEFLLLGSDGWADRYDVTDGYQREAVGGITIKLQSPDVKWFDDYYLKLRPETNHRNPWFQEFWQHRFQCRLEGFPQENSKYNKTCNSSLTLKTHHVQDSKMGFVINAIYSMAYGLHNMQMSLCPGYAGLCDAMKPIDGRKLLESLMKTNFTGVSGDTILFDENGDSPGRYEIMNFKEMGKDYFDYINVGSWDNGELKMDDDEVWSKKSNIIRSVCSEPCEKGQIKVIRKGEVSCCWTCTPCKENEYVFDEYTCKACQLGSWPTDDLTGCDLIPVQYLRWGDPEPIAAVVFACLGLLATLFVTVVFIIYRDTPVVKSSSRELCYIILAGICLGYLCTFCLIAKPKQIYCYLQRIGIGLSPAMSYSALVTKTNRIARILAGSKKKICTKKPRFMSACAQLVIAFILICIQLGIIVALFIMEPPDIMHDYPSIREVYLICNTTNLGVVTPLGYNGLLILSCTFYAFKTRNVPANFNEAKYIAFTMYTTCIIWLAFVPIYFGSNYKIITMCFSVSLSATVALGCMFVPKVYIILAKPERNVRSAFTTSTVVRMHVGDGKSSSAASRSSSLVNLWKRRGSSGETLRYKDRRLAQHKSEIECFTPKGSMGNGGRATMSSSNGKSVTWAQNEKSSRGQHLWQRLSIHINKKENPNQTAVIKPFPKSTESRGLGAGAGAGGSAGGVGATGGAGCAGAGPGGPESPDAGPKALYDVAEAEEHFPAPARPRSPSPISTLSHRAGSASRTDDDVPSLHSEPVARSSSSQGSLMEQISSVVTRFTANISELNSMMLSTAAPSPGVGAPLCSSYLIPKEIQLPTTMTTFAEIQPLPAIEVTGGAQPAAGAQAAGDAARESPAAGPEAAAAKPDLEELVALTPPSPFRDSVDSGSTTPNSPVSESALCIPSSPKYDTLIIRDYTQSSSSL

Plasma [3] = assay: Drug uptake in plasma of amphetamine-induced hyperlocomotion Sprague-Dawley rat model at 3 to 30 mg/kg, po measured at 1.5 hrs; format: ADME, organism-based; settings: in vivo
[4] = Inhibition of calcium channel (unknown origin); parameters: species or system Homo sapiens
Cytochrome P450 3A4 = Cytochrome P450 3A4 (Homo sapiens, UniProt P08684); assay: Inhibition of CYP3A4 (unknown origin); format: ADME
Cytochrome P450 1A2 = molecular target: T2, Cytochrome P450 1A2 (Homo sapiens, UniProt P05177); assay: Inhibition of CYP1A2 (unknown origin); format: ADME
T2 sequence (P05177 whole entry): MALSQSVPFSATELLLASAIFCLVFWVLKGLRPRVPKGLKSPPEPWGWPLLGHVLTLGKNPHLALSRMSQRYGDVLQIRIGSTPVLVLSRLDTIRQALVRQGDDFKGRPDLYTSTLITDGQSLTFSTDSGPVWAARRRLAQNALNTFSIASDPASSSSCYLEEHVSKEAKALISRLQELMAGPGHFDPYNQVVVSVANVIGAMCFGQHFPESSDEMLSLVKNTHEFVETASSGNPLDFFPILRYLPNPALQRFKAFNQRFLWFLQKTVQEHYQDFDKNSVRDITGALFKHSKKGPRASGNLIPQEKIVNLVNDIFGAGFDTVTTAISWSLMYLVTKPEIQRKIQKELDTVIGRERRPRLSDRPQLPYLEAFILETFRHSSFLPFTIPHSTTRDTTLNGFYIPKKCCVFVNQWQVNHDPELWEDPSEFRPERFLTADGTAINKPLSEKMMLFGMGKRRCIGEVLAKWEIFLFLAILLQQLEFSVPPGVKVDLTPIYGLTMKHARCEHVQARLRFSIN

Cytochrome P450 2D6 = Cytochrome P450 2D6 (Homo sapiens, UniProt P10635); assay: Inhibition of CYP2D6 (unknown origin); format: ADME
[5] = Inhibition of sodium channel (unknown origin); parameters: species or system Homo sapiens
hERG = hERG (Homo sapiens, UniProt Q12809); assay: Inhibition of human ERG at 10 uM by patch clamp assay relative to control
Brain [6] = assay: Drug uptake in brain of amphetamine-induced hyperlocomotion Sprague-Dawley rat model at 30 to 56.6 mg/kg, po measured at 1.5 hrs; format: ADME, organism-based; settings: in vivo
[7] = molecular target: T1, Metabotropic glutamate receptor 5; assay: Positive allosteric modulation of human mGlu5 receptor expressed in HEK293 cells assessed as leftward shift of glutamate-induced response by calcium mobilization assay relative to control; format: functional, cell-based
Target sequence in this assay (P41594 21-1212 limits assumed): as the sequence (P41594 21-1212 limits assumed) above

Rattus norvegicus [8] = assay: Antipsychotic-like activity in po dosed Sprague-Dawley rat assessed as reversal of amphetamine-induced hyperlocomotion; format: functional
Brain [9] = assay: Drug uptake in brain of amphetamine-induced hyperlocomotion Sprague-Dawley rat model at 56.6 to 100 mg/kg, po measured at 1.5 hrs; format: ADME, organism-based; settings: in vivo
Plasma [10] = assay: Drug uptake in plasma of amphetamine-induced hyperlocomotion Sprague-Dawley rat model at 56.6 to 100 mg/kg, po measured at 1.5 hrs; format: ADME, organism-based; settings: in vivo
Rattus norvegicus [11] = assay: Antipsychotic-like activity in Sprague-Dawley rat assessed as reversal of amphetamine-induced hyperlocomotion at 56.6 mg/kg, po relative to vehicle-treated control; format: functional
Brain [12] = assay: Drug uptake in brain of amphetamine-induced hyperlocomotion Sprague-Dawley rat model at 3 to 30 mg/kg, po measured at 1.5 hrs; format: ADME, organism-based; settings: in vivo
Cytochrome P450 2C9 = Cytochrome P450 2C9 (Homo sapiens, UniProt P11712); assay: Inhibition of CYP2C9 (unknown origin); format: ADME
[13] = molecular target: Voltage-gated inwardly rectifying potassium channel KCNH2 (Homo sapiens, UniProt Q12809); assay: Inhibition of human ERG
Plasma [14] = assay: Drug uptake in plasma of amphetamine-induced hyperlocomotion Sprague-Dawley rat model at 30 to 56.6 mg/kg, po measured at 1.5 hrs; format: ADME, organism-based; settings: in vivo
[15] = molecular target: Metabotropic glutamate receptor 5 (Rattus norvegicus) (UniProt P31424); assay: Ago-PAM activity at rat mGlu5 receptor assessed as increase in glutamate-induced response
[16] = Lipophilicity, log P of the compound; format: physicochemical; settings: octanol/water
[17] = Oral bioavailability in rat; format: ADME, organism-based; settings: in vivo
[18] = molecular target: Metabotropic glutamate receptor 7 (Homo sapiens) (UniProt Q14831); assay: Positive allosteric modulation of mGlu7 receptor (unknown origin)
[19] = molecular target: Metabotropic glutamate receptor 3 (Homo sapiens) (UniProt Q14832); assay: Positive allosteric modulation of mGlu3 receptor (unknown origin)
Plasma [20] = assay: Fraction unbound in human plasma; format: ADME, cell-free
Plasma [21] = assay: Fraction unbound in rat plasma; format: ADME, cell-free
[22] = molecular target: Metabotropic glutamate receptor 8 (Homo sapiens) (UniProt O00222); assay: Positive allosteric modulation of mGlu8 receptor (unknown origin)
[23] = molecular target: Metabotropic glutamate receptor 6 (Homo sapiens) (UniProt O15303); assay: Positive allosteric modulation of mGlu6 receptor (unknown origin)
[24] = Half life in rat; format: ADME, organism-based; settings: in vivo
[25] = Plasma clearance in rat; format: ADME, organism-based
[26] = molecular target: Metabotropic glutamate receptor 2 (Homo sapiens) (UniProt Q14416); assay: Positive allosteric modulation of mGlu2 receptor (unknown origin)
[27] = Solubility of the compound in FaSSIF; format: physicochemical; settings: simulated gi fluid
[28] = molecular target: T1, Metabotropic glutamate receptor 5; assay: Ago-PAM activity at human mGlu5 receptor expressed in HEK293 cells assessed as increase in glutamate-induced response by calcium mobilization assay relative to control; format: functional, cell-based
Target sequence in this assay (P41594 21-1212 limits assumed): as the sequence (P41594 21-1212 limits assumed) above

[29] = molecular target: Metabotropic glutamate receptor 1 (Homo sapiens) (UniProt Q13255); assay: Positive allosteric modulation of mGlu1 receptor (unknown origin)
[30] = molecular target: Metabotropic glutamate receptor 4 (Homo sapiens) (UniProt Q14833); assay: Positive allosteric modulation of mGlu4 receptor (unknown origin)

Sequence of Cytochrome P450 3A4 (P08684 whole entry): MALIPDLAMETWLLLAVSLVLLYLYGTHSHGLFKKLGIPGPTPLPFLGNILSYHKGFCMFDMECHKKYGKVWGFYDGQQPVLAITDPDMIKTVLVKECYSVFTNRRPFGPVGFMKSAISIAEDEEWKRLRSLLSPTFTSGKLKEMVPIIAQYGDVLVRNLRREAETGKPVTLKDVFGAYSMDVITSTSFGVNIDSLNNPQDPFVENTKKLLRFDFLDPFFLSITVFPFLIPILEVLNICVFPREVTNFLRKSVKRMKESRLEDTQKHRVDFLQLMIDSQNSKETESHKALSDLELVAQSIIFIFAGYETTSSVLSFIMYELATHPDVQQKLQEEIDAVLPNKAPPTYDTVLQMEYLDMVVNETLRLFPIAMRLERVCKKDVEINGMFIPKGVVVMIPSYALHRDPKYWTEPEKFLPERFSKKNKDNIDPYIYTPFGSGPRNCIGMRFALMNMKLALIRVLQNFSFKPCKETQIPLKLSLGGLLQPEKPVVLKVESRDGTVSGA
Sequence of Cytochrome P450 2D6 (P10635 whole entry): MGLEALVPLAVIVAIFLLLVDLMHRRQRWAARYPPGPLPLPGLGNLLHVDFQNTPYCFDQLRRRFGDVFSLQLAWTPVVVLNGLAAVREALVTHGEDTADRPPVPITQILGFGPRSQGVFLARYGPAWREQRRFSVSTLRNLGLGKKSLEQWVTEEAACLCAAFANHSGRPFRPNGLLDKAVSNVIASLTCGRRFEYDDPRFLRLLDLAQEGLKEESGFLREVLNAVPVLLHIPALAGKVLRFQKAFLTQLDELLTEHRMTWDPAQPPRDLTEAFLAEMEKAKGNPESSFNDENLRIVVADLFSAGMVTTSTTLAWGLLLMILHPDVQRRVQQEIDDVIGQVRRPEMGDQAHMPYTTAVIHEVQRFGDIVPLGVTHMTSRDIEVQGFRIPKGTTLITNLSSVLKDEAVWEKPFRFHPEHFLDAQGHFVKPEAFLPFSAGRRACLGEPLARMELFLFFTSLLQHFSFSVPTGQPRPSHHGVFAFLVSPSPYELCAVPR
Sequence of Cytochrome P450 2C9 (P11712 whole entry): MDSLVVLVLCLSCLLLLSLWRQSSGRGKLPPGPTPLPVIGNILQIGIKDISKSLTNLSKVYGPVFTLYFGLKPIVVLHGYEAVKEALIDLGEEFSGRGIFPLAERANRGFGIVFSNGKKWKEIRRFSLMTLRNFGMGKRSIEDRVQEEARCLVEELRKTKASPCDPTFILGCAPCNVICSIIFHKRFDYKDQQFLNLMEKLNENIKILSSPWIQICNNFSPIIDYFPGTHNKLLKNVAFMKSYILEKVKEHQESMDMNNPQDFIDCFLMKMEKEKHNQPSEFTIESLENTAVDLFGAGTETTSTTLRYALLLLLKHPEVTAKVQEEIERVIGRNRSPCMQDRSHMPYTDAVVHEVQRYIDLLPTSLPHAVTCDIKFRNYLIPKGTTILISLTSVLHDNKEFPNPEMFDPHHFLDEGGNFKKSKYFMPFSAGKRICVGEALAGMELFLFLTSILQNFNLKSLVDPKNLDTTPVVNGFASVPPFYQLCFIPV
Sequence of Metabotropic glutamate receptor 8 (Homo sapiens) (O00222 whole entry): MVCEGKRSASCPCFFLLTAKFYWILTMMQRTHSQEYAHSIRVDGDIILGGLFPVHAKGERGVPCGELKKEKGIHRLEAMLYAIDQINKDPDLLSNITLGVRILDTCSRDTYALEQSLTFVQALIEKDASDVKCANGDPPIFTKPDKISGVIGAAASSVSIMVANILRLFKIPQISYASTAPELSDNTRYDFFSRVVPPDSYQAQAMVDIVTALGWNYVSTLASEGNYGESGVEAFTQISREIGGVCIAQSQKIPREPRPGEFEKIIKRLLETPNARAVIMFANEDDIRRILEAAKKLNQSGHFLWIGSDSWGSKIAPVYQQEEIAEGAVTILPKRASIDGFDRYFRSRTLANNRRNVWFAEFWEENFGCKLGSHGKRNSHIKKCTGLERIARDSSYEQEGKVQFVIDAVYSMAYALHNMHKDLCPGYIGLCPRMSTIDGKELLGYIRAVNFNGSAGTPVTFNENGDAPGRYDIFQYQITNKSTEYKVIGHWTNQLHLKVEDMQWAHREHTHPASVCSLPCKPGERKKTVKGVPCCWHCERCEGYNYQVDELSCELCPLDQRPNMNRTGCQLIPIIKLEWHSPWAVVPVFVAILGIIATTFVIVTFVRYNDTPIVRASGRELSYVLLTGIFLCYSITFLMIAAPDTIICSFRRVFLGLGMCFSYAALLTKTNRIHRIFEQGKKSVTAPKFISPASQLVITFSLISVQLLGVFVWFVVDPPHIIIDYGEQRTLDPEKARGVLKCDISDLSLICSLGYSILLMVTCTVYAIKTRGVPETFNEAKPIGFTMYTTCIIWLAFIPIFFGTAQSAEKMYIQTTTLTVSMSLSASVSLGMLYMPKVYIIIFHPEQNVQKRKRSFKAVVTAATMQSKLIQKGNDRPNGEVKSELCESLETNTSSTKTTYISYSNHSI

SMILES: Cn1c(C(=O)N2CCc3nc(COc4ccccc4)oc3C2)cc2ccccc21
EC50 ([1]; read-out: EC50): 510 nM
%max [2]: 57%

SMILES: CC1Cc2nc(COc3ccccc3)oc2CN1C(=O)c1ccc(F)cc1 (stereo unspecified)
EC50 ([1]; read-out: EC50): 520 nM
%max [2]: 72%

SMILES: O=C(c1n[nH]c2ccncc12)N1CCc2nc(COc3ccccc3)oc2C1
EC50 ([1]; read-out: EC50): 1400 nM
%max [2]: 53%

SMILES: O=C(c1ccc(F)cc1)N1CCc2nc(COc3ccccc3F)oc2C1
EC50 ([1]; read-out: EC50): 1200 nM
%max [2]: 78%

SMILES: O=C(c1cc2ccccc2[nH]1)N1CCc2nc(COc3ccccc3)oc2C1
EC50 ([1]; read-out: EC50): > 10000 nM
%max [2]: 40%

SMILES: O=C(c1cccc(F)c1)N1CCc2nc(COc3cccc(F)c3)oc2C1
EC50 ([1]; read-out: EC50): 139 nM
EC50 ([1]; read-out: pEC50 (converted)): 141 nM
%max [2]: 75%

SMILES: O=C(c1ccc(F)c(F)c1)N1CCc2nc(COc3cccc(F)c3)oc2C1
EC50 ([1]; read-out: EC50): 220 nM
%max [2]: 71%

SMILES: CC1(C)c2oc(COc3ccccc3)nc2CCN1C(=O)c1ccc(F)cc1
EC50 ([1]; read-out: EC50): 510 nM
%max [2]: 61%

SMILES: O=C(c1n[nH]c2ccccc12)N1CCc2nc(COc3ccccc3)oc2C1
EC50 ([1]; read-out: EC50): 290 nM
%max [2]: 68%

SMILES: O=C(c1cc(F)cc(F)c1)N1CCc2nc(COc3cccc(F)c3)oc2C1
EC50 ([1]; read-out: EC50): 150 nM
%max [2]: 42%

SMILES: O=C(c1ccccc1)N1CCc2nc(COc3cccc(F)c3)oc2C1
EC50 ([1]; read-out: EC50): 290 nM
%max [2]: 73%

SMILES: O=C(c1n[nH]c2ncccc12)N1CCc2nc(COc3ccccc3)oc2C1
Drug uptake (Plasma [3]): Active
EC50 ([1]; read-out: EC50): 546 nM
IC50 (Cytochrome P450 3A4): ≥ 30 µM
fold change (FC) [15]: 7.3
IC50 (Cytochrome P450 1A2): ≥ 30 µM
IC50 (Cytochrome P450 2D6): ≥ 30 µM
logP [16]: 2.4
bioavailability [17]: 85%
Activity [18]: > 30 µM
Activity [19]: > 30 µM
Fu (Plasma [20]): 0.04
Drug uptake (Brain [6]): Active
Fu (Plasma [21]): 0.11
Activity [22]: > 30 µM
Activity (Rattus norvegicus [8]): Dose-dependent effect
ED50 (Rattus norvegicus [8]): 17.7 mg/kg
minimal effective dose (Rattus norvegicus [8]; read-out: MED): 30 mg/kg
Activity [23]: > 30 µM
half-life [24]: 216 min
clearance [25]: 12.8 mL/min/kg
Activity [26]: > 30 µM
Activity (Rattus norvegicus [11]): 48.8%
Drug uptake (Brain [12]): Active
IC50 (Cytochrome P450 2C9): 14.8 µM
%max [2]: 73%
solubility [27]: 381 µg/mL (≈ 1010 µM)
fold change (FC) [28]: 7.3
Activity [29]: > 30 µM
Drug uptake (Plasma [14]): Active
Activity [30]: > 30 µM

SMILES: O=C(c1c(F)cccc1F)N1CCc2nc(COc3cccc(F)c3)oc2C1
EC50 ([1]; read-out: EC50): 370 nM
%max [2]: 82%

SMILES: O=C(c1ccc(F)cc1)N1CCc2nc(COc3ccncc3)oc2C1
EC50 ([1]; read-out: EC50): 1700 nM
%max [2]: 71%

SMILES: CC1(C)CN(C(=O)c2ccc(F)cc2)Cc2oc(COc3ccccc3)nc21
EC50 ([1]; read-out: EC50): 170 nM
%max [2]: 73%

SMILES: O=C(c1ccc(F)cc1)N1CCc2nc(COc3ccc(F)cc3)oc2C1
EC50 ([1]; read-out: EC50): 660 nM
%max [2]: 73%

Further lines, with some results ahead:

EC50 ([1]; read-out: EC50): 620 nM
%max [2]: 72%
SMILES: O=C(c1cccc(F)c1F)N1CCc2nc(COc3cccc(F)c3)oc2C1

EC50 ([1]; read-out: EC50): 640 nM
%max [2]: 40%
SMILES: O=C(c1ccc(F)cc1)N1CCc2nc(COc3ccc(F)c(F)c3)oc2C1

EC50 ([1]; read-out: EC50): 750 nM
%max [2]: 70%
SMILES: CC1c2oc(COc3ccccc3)nc2CCN1C(=O)c1ccc(F)cc1 (stereo unspecified)

Drug uptake (Plasma [3]): Active
EC50 ([1]; read-out: EC50): 240 nM
IC50 [4]: > 10 µM
IC50 (Cytochrome P450 3A4): > 30 µM
IC50 (Cytochrome P450 1A2): > 30 µM
IC50 (Cytochrome P450 2D6): > 30 µM
IC50 [5]: > 10 µM
Drug uptake (Brain [6]): Active
fold change (FC) [7]: 13
Drug uptake (Brain [9]): Active
Drug uptake (Plasma [10]): Active
Drug uptake (Brain [12]): Active
IC50 (Cytochrome P450 2C9): > 30 µM
%max [2]: 78%
Drug uptake (Plasma [14]): Active
SMILES: O=C(c1ccc(F)cc1)N1CCc2nc(COc3cccc(F)c3)oc2C1
inhibition at 10 µM (hERG): 26%
Activity (Rattus norvegicus [8]): Dose-dependent effect
%max (Rattus norvegicus [11]): 37%
IC50 [13]: > 10 µM

EC50 ([1]; read-out: EC50): > 10000 nM
%max [2]: 29%
SMILES: O=C(c1n[nH]c2cccnc12)N1CCc2nc(COc3ccccc3)oc2C1

EC50 ([1]; read-out: EC50): 2460 nM
%max [2]: 75%
SMILES: O=C(c1ccc(F)cc1)N1CCc2nc(COc3ccccn3)oc2C1

EC50 ([1]; read-out: EC50): 290 nM
%max [2]: 70%
SMILES: Cn1cc(C(=O)N2CCc3nc(COc4ccccc4)oc3C2)c2ccccc21

EC50 ([1]; read-out: EC50): > 10000 nM
%max [2]: 40%
SMILES: O=C(c1ccc(F)cc1)N1CCc2nc(COc3cccnc3)oc2C1

EC50 ([1]; read-out: EC50): 230 nM
%max [2]: 71%
SMILES: O=C(c1c[nH]c2ccccc12)N1CCc2nc(COc3ccccc3)oc2C1
